How the values were obtained:
Assay in all cases: relative viability (nuclei count vs DMSO), 5 days (fraction); higher = more cells survive
[1] = compound: CC1=NN=C(O1)C2=NN=C(C=C2)N3CCC(CC3)OC4=C(C=CC(=C4)F)Cl + O=C(c1cc(Cc2n[nH]c(=O)c3ccccc23)ccc1F)N1CCN(C(=O)C2CC2)CC1 [Olaparib] (partner 8 µM)
Outline: (§1)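 Relative viability is defined as nuclei in treated wells over nuclei in vehicle wells. Duplicate plates were run and medians reported. Lung cancer cell lines in 1536-well plates were dosed by pin tool one day after seeding, with one drug or with a fixed anchor-drug dose plus five library-drug doses (not always all listed) in √10 steps, and nuclei were counted after 5 days.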

[2] = compound: CC1=NN=C(O1)C2=NN=C(C=C2)N3CCC(CC3)OC4=C(C=CC(=C4)F)Cl + Nc1ncn([C@H]2C[C@H](O)[C@@H](CO)O2)c(=O)n1 [Decitabine] (partner 2 µM)
Outline: as §1

[3] = compound: CC1=NN=C(O1)C2=NN=C(C=C2)N3CCC(CC3)OC4=C(C=CC(=C4)F)Cl + CC(C)C[C@H](NC(=O)[C@H](Cc1ccccc1)NC(=O)c1cnccn1)B(O)O [Bortezomib] (partner 0.002 µM)
Outline: as §1

[4] = compound: CC1=NN=C(O1)C2=NN=C(C=C2)N3CCC(CC3)OC4=C(C=CC(=C4)F)Cl + C[C@@H](Oc1cc(-c2cnn(C3CCNCC3)c2)cnc1N)c1c(Cl)ccc(F)c1Cl [Crizotinib] (partner 1 µM)
Outline: as §1

In the case of UMC-11, the relative viability ([1]; first compound 0.253 µM) was 0.244, the relative viability ([1]; first compound 0.8 µM) was 0.379 and the relative viability ([1]; first compound 2.53 µM) was 0.396. The relative viability ([1]; first compound 8 µM) was 0.233, the relative viability ([2]; first compound 0.253 µM) was 0.517 and the relative viability ([2]; first compound 0.8 µM) was 0.517. It also gave a relative viability ([2]; first compound 2.53 µM) of 0.507, a relative viability ([2]; first compound 8 µM) of 0.466 and a relative viability ([3]; first compound 0.253 µM) of 0.66. The relative viability ([3]; first compound 0.8 µM) was 0.533, the relative viability ([3]; first compound 2.53 µM) was 0.636 and the relative viability ([3]; first compound 8 µM) was 0.575. For the same cell line, the relative viability ([4]; first compound 0.253 µM) was 0.468, the relative viability ([4]; first compound 0.8 µM) was 0.474 and the relative viability ([4]; first compound 2.53 µM) was 0.476. It also gave a relative viability ([4]; first compound 8 µM) of 0.487.
